From BigSolDB 2.1

CC(=O)Nc1ccc(OC(=O)c2ccccc2OC(C)=O)cc1
solubility (mole fraction)
Settings	278.15 K	283.15 K	288.15 K	293.15 K	298.15 K	303.15 K	308.15 K	313.15 K	318.15 K
in 1,4-dioxane	–	–	–	0.00169	0.00204	0.0025	0.00298	0.0035	0.00427
in 2-butanone	0.0025	0.00267	0.00287	0.00308	0.00333	0.00361	0.00392	0.00429	0.00465
in DMF	0.0172	0.0182	0.0192	0.0203	0.0215	0.0228	0.0242	–	–
in NMP	0.0209	0.024	0.0272	0.0304	0.0341	0.0378	0.0417	0.0464	0.0512
in acetonitrile	0.000681	0.000855	0.00105	0.00134	0.00164	0.00199	0.00236	0.00283	0.00339
in ethanol	0.000158	0.00021	0.000265	0.000326	0.000403	0.000486	0.000589	0.000733	0.000907
in ethyl acetate	0.000392	0.000519	0.000651	0.000789	0.000983	0.00119	0.00141	0.00169	0.00198
in isopropanol	7.6e-05	0.000107	0.000139	0.000178	0.000217	0.000262	0.000323	0.000394	0.000493
in methanol	0.000143	0.000182	0.000228	0.000278	0.000337	0.000403	0.000485	0.000601	0.000745
in n-butanol	0.000179	0.000235	0.0003	0.000375	0.000459	0.000557	0.000683	0.000852	0.00104
in n-propanol	8.8e-05	0.000128	0.000173	0.000214	0.000264	0.000327	0.000402	0.000496	0.000647
in toluene	1.3e-05	1.8e-05	2.5e-05	3.4e-05	4.3e-05	5.5e-05	6.8e-05	8.6e-05	0.000108
